Assay results reported in patent US20100267561A1, “HERBICIDAL PYRIDAZINONE DERIVATIVES” (priority 2007, published 2010).

Legend:
Type in all cases: in vivo
[1] = system: Italian ryegrass (Lolium multiflorum); assay: Test B pre-/postemergence plant response; settings: Preemergence
Summary of the method: (§1)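 Seeds were sown and sprayed preemergence, while plants at 2 to 18 cm (1- to 4-leaf stage) got postemergence sprays. Compounds were formulated in a non-phytotoxic solvent mixture with surfactant. After 13 to 15 days in a greenhouse, injury was rated visually against untreated controls, 0 (no effect) to 100 (complete control).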

[2] = system: blackgrass (Alopecurus myosuroides); assay: Test B pre-/postemergence plant response; settings: Preemergence
Summary of the method: as §1

[3] = system: catchweed bedstraw (Galium aparine); assay: Test B pre-/postemergence plant response; settings: Preemergence
Summary of the method: as §1

[4] = system: common (oilseed) sunflower (Helianthus annuus); assay: Test B pre-/postemergence plant response; settings: Preemergence
Summary of the method: as §1

[5] = system: common ragweed (Ambrosia elation); assay: Test B pre-/postemergence plant response; settings: Preemergence
Summary of the method: as §1

[6] = system: downy bromegrass (Bromus tectorum); assay: Test B pre-/postemergence plant response; settings: Preemergence
Summary of the method: as §1

[7] = system: eastern black (E.B.) nightshade (Solanum ptycanthum); assay: Test B pre-/postemergence plant response; settings: Preemergence
Summary of the method: as §1

[8] = system: johnsongrass (Sorghum halepense); assay: Test B pre-/postemergence plant response; settings: Preemergence
Summary of the method: as §1

[9] = system: large crabgrass (Digitaria sanguinalis); assay: Test B pre-/postemergence plant response; settings: Preemergence
Summary of the method: as §1

[10] = system: morningglory (Ipomoea coccinea); assay: Test B pre-/postemergence plant response; settings: Preemergence
Summary of the method: as §1

[11] = system: pigweed (Amaranthus retroflexus); assay: Test B pre-/postemergence plant response; settings: Preemergence
Summary of the method: as §1

wild oat (Avena fatua) = assay: Test B pre-/postemergence plant response; settings: Preemergence
Summary of the method: as §1

[12] = system: barnyardgrass (Echinochloa crus-galli); assay: Test B flooded paddy test plant response; settings: Echinochloa crus-galli, read-out: Plant response rating, Barnyardgrass
Summary of the method: (§2)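 Rice, umbrella sedge, ducksalad and barnyardgrass at 2-leaf stage; pots flooded to 3 cm, compounds applied into paddy water, depth held throughout. Greenhouse 13 to 15 days, then visual rating vs untreated controls on 0–100 scale (0 no effect, 100 complete control); dash means no test result.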

rice (Oryza sativa) = assay: Test B flooded paddy test plant response; settings: Oryza sativa, read-out: Plant response rating, Rice
Summary of the method: as §2

[13] = Flood (flooded paddy test), 62 g ai/ha, scale 0 to 100, 0 no effect, 100 complete control
[14] = Flood (flooded paddy test), 125 g ai/ha, scale 0 to 100, 0 no effect, 100 complete control
[15] = Flood (flooded paddy test), 250 g ai/ha, scale 0 to 100, 0 no effect, 100 complete control
[16] = Flood, 31 g ai/ha, scale 0 to 100

Compound: Cc1cn(-c2ccc(Cl)cc2)nc1-c1c(O)cnn(C)c1=O [Compound 30, 4-[1-(4-chlorophenyl)-4-methyl-1H-pyrazol-3-yl]-5-hydroxy-2-methyl-3(2H)-pyridazinone]
- pest or weed control at 16 g/ha ([1]; Lolium multiflorum, pre-emergence, 16 g ai/ha, scale 0 to 100 (0 no effect, 100 complete control), read-out: Plant response rating, Ryegrass, Italian): 10%
- pest or weed control at 31 g/ha ([1]; Lolium multiflorum, pre-emergence, 31 g ai/ha, 0 to 100 scale, 0 no effect, 100 complete control, read-out: Plant response rating, Ryegrass, Italian): 50%
- pest or weed control at 62 g/ha ([1]; Lolium multiflorum, pre-emergence, 62 g ai/ha, scale 0 to 100, read-out: Plant response rating, Ryegrass, Italian): 100%
- Ryegrass, Italian plant response rating ([1]; 8 g ai/ha, scale 0 to 100): 0
- pest or weed control at 16 g/ha ([2]; Alopecurus myosuroides, pre-emergence, 16 g ai/ha, scale 0 to 100 (0 no effect, 100 complete control), read-out: Plant response rating, Blackgrass): 60%
- pest or weed control at 31 g/ha ([2]; Alopecurus myosuroides, pre-emergence, 31 g ai/ha, 0 to 100 scale, 0 no effect, 100 complete control, read-out: Plant response rating, Blackgrass): 100%
- pest or weed control at 62 g/ha ([2]; Alopecurus myosuroides, pre-emergence, 62 g ai/ha, scale 0 to 100, read-out: Plant response rating, Blackgrass): 100%
- Blackgrass plant response rating ([2]; 8 g ai/ha, scale 0 to 100): 0
- pest or weed control at 16 g/ha ([3]; Galium aparine, pre-emergence, 16 g ai/ha, scale 0 to 100 (0 no effect, 100 complete control), read-out: Plant response rating, Galium): 0%
- pest or weed control at 31 g/ha ([3]; Galium aparine, pre-emergence, 31 g ai/ha, 0 to 100 scale, 0 no effect, 100 complete control, read-out: Plant response rating, Galium): 0%
- pest or weed control at 62 g/ha ([3]; Galium aparine, pre-emergence, 62 g ai/ha, scale 0 to 100, read-out: Plant response rating, Galium): 0%
- Galium plant response rating ([3]; 8 g ai/ha, scale 0 to 100): 0
- pest or weed control at 16 g/ha ([4]; Helianthus annuus, pre-emergence, 16 g ai/ha, scale 0 to 100 (0 no effect, 100 complete control), read-out: Plant response rating, Sunflower): 0%
- pest or weed control at 31 g/ha ([4]; Helianthus annuus, pre-emergence, 31 g ai/ha, 0 to 100 scale, 0 no effect, 100 complete control, read-out: Plant response rating, Sunflower): 0%
- pest or weed control at 62 g/ha ([4]; Helianthus annuus, pre-emergence, 62 g ai/ha, scale 0 to 100, read-out: Plant response rating, Sunflower): 0%
- Sunflower plant response rating ([4]; 8 g ai/ha, scale 0 to 100): 0
- pest or weed control at 16 g/ha ([5]; Ambrosia, pre-emergence, 16 g ai/ha, scale 0 to 100 (0 no effect, 100 complete control), read-out: Plant response rating, Ragweed): 0%
- pest or weed control at 31 g/ha ([5]; Ambrosia, pre-emergence, 31 g ai/ha, 0 to 100 scale, 0 no effect, 100 complete control, read-out: Plant response rating, Ragweed): 0%
- pest or weed control at 62 g/ha ([5]; Ambrosia, pre-emergence, 62 g ai/ha, scale 0 to 100, read-out: Plant response rating, Ragweed): 0%
- Ragweed plant response rating ([5]; 8 g ai/ha, scale 0 to 100): 0
- pest or weed control at 16 g/ha ([6]; Bromus tectorum, pre-emergence, 16 g ai/ha, scale 0 to 100 (0 no effect, 100 complete control), read-out: Plant response rating, Bromegrass, Downy): 10%
- pest or weed control at 31 g/ha ([6]; Bromus tectorum, pre-emergence, 31 g ai/ha, 0 to 100 scale, 0 no effect, 100 complete control, read-out: Plant response rating, Bromegrass, Downy): 10%
- pest or weed control at 62 g/ha ([6]; Bromus tectorum, pre-emergence, 62 g ai/ha, scale 0 to 100, read-out: Plant response rating, Bromegrass, Downy): 85%
- Bromegrass, Downy plant response rating ([6]; 8 g ai/ha, scale 0 to 100): 0
- Nightshade, E. B. plant response rating ([7]; 8 g ai/ha, scale 0 to 100): 0
- pest or weed control at 16 g/ha ([7]; Solanum, pre-emergence, 16 g ai/ha, scale 0 to 100 (0 no effect, 100 complete control), read-out: Plant response rating, Nightshade, E. B.): 0%
- pest or weed control at 31 g/ha ([7]; Solanum, pre-emergence, 31 g ai/ha, 0 to 100 scale, 0 no effect, 100 complete control, read-out: Plant response rating, Nightshade, E. B.): 0%
- pest or weed control at 62 g/ha ([7]; Solanum, pre-emergence, 62 g ai/ha, scale 0 to 100, read-out: Plant response rating, Nightshade, E. B.): 0%
- Johnsongrass plant response rating ([8]; 8 g ai/ha, scale 0 to 100): 0
- pest or weed control at 16 g/ha ([8]; Sorghum halepense, pre-emergence, 16 g ai/ha, scale 0 to 100 (0 no effect, 100 complete control), read-out: Plant response rating, Johnsongrass): 50%
- pest or weed control at 31 g/ha ([8]; Sorghum halepense, pre-emergence, 31 g ai/ha, 0 to 100 scale, 0 no effect, 100 complete control, read-out: Plant response rating, Johnsongrass): 50%
- pest or weed control at 62 g/ha ([8]; Sorghum halepense, pre-emergence, 62 g ai/ha, scale 0 to 100, read-out: Plant response rating, Johnsongrass): 98%
- pest or weed control at 16 g/ha ([9]; Digitaria sanguinalis, pre-emergence, 16 g ai/ha, scale 0 to 100 (0 no effect, 100 complete control), read-out: Plant response rating, Crabgrass, Large): 90%
- pest or weed control at 31 g/ha ([9]; Digitaria sanguinalis, pre-emergence, 31 g ai/ha, 0 to 100 scale, 0 no effect, 100 complete control, read-out: Plant response rating, Crabgrass, Large): 100%
- pest or weed control at 62 g/ha ([9]; Digitaria sanguinalis, pre-emergence, 62 g ai/ha, scale 0 to 100, read-out: Plant response rating, Crabgrass, Large): 100%
- Crabgrass, Large plant response rating ([9]; 8 g ai/ha, scale 0 to 100): 80
- pest or weed control at 16 g/ha ([10]; Ipomoea, pre-emergence, 16 g ai/ha, scale 0 to 100 (0 no effect, 100 complete control), read-out: Plant response rating, Morningglory): 0%
- pest or weed control at 31 g/ha ([10]; Ipomoea, pre-emergence, 31 g ai/ha, 0 to 100 scale, 0 no effect, 100 complete control, read-out: Plant response rating, Morningglory): 0%
- Morningglory plant response rating ([10]; 8 g ai/ha, scale 0 to 100): 0
- pest or weed control at 16 g/ha ([11]; Amaranthus retroflexus, pre-emergence, 16 g ai/ha, scale 0 to 100 (0 no effect, 100 complete control), read-out: Plant response rating, Pigweed): 0%
- pest or weed control at 31 g/ha ([11]; Amaranthus retroflexus, pre-emergence, 31 g ai/ha, 0 to 100 scale, 0 no effect, 100 complete control, read-out: Plant response rating, Pigweed): 0%
- pest or weed control at 62 g/ha ([11]; Amaranthus retroflexus, pre-emergence, 62 g ai/ha, scale 0 to 100, read-out: Plant response rating, Pigweed): 0%
- Pigweed plant response rating ([11]; 8 g ai/ha, scale 0 to 100): 0
- pest or weed control at 16 g/ha (wild oat (Avena fatua); Avena fatua, pre-emergence, 16 g ai/ha, scale 0 to 100 (0 no effect, 100 complete control), read-out: Plant response rating, Oat, Wild): 50%
- pest or weed control at 31 g/ha (wild oat (Avena fatua); Avena fatua, pre-emergence, 31 g ai/ha, 0 to 100 scale, 0 no effect, 100 complete control, read-out: Plant response rating, Oat, Wild): 50%
- pest or weed control at 62 g/ha (wild oat (Avena fatua); Avena fatua, pre-emergence, 62 g ai/ha, scale 0 to 100, read-out: Plant response rating, Oat, Wild): 80%
- Oat, Wild plant response rating (wild oat (Avena fatua); 8 g ai/ha, scale 0 to 100): 50
- pest or weed control at 62 g/ha [12, 13]: 0%
- pest or weed control at 125 g/ha [12, 14]: 0%
- pest or weed control at 250 g/ha [12, 15]: 0%
- pest or weed control at 31 g/ha [12, 16]: 0%
- plant injury at 62 g/ha (rice (Oryza sativa); [13]): 0%
- plant injury at 125 g/ha (rice (Oryza sativa); [14]): 0%
- plant injury at 250 g/ha (rice (Oryza sativa); [15]): 0%
- plant injury at 31 g/ha (rice (Oryza sativa); [16]): 0%
